This note sets out measurements from ChEMBL document CHEMBL4627403, “Development of Selective Steroid Inhibitors for the Glucose-6-phosphate Dehydrogenase from Trypanosoma cruzi” (ACS Med Chem Lett, 2020).

A short description of series [1]: Inhibition of recombinant Trypanosoma cruzi G6PDH expressed in Escherichia coli by fluorescence assay.
Series [2] can be described thus: Selectivity index, ratio of EC50 for cytotoxicity against rat H9C2 cells to EC50 for antitrypanosomal activity against Trypanosoma cruzi Y amastigotes infected in rat H9C2 cells. To be noted: read-out: Ratio EC50. It counts as toxicity, cell-based.
The test system of series [3] is Trypanosoma cruzi. The series can be described thus: Antitrypanosomal activity against Trypanosoma cruzi Y amastigotes infected in rat H9C2 cells assessed as reduction in parasite infection at 20 uM after 72 hrs by Hoechst 33342 staining based fluorescence microscopy. It counts as functional, organism-based.
Series [4] relates to Trypanosoma cruzi. The series can be described thus: Antitrypanosomal activity against Trypanosoma cruzi Y amastigotes infected in rat H9C2 cells after 72 hrs by Hoechst 33342 staining based fluorescence microscopy. It counts as functional, organism-based. The following applies: H9c2, 72 h.
Series [5] relates to H9c2. The series can be described thus: Cytotoxicity against rat H9c2 cells at 20 uM after 72 hrs by Hoechst 33342 staining based fluorescence microscopy. The following applies: h9c2, 72 h. It counts as cell-based.
For series [6], the system named is H9c2. The series can be described thus: Cytotoxicity against rat H9c2 cells after 72 hrs by Hoechst 33342 staining based fluorescence microscopy. It counts as cell-based. To be noted: H9c2, 72 h.
A short description of series [7]: Selectivity index, ratio of IC50 for human G6PDH to IC50 for Trypanosoma cruzi G6PDH.
Series [8] deals with T1, Glucose-6-phosphate 1-dehydrogenase (Homo sapiens, UniProt P11413). The series can be described thus: Inhibition of recombinant human G6PDH expressed in Escherichia coli by fluorescence assay.
T1 sequence (P11413 whole entry): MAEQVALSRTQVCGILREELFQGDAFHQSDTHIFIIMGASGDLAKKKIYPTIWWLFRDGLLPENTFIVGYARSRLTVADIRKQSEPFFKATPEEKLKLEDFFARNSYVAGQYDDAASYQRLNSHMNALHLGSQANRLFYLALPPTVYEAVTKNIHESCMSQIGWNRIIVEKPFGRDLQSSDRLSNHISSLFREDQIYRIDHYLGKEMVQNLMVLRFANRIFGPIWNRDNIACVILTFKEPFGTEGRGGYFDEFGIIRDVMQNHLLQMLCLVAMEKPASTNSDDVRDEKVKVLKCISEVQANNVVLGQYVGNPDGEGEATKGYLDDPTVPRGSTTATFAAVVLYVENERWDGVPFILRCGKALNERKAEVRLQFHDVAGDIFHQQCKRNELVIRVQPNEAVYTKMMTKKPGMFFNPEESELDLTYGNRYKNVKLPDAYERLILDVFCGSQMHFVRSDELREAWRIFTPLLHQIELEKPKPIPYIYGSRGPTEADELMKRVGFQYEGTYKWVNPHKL
In series [9] the test system is Trypanosoma cruzi. The series can be described thus: Antitrypanosomal activity against Trypanosoma cruzi Y amastigotes infected in rat H9C2 rat cells assessed as reduction in number of infected cells at 10 uM after 72 hrs by Hoechst 33342 staining based fluorescence microscopy. It counts as functional, organism-based.
The target in series [10] is T1, Glucose-6-phosphate 1-dehydrogenase. The series can be described thus: Inhibition of recombinant human G6PDH expressed in Escherichia coli at 80 uM by fluorescence assay.

SMILES strings stand for the structures. Active and inactive are the calls of the source. The rule behind the calls is not given here.

For the compound `CC(=O)O[C@H]1CC[C@@]2(C)[C@@H](CC[C@@H]3[C@@H]2CC[C@]2(C)C(=O)[C@H](Br)C[C@@H]32)C1`, the IC50 (commonly the concentration at which inhibition is half-maximal) in series [1] lay in the range of 0.15 to 0.38 µM. Further, the selectivity ratio in series [2] worked out at 1.7. The result with Trypanosoma cruzi [3] was Active. In addition, the figures for the EC50 in the series on Trypanosoma cruzi [4] and in the series with H9c2 [6] were 8.5 µM and 14.7 µM, respectively. The Activity entry with H9c2 [5] is “Toxic”. The Ratio IC50 in series [7] worked out at 160.
With `CN1CCN(C[C@H](O)CO[C@H]2CC[C@@]3(C)[C@@H](CC[C@@H]4[C@@H]3CC[C@]3(C)C(=O)CC[C@@H]43)C2)CC1`, in series [8], the IC50 is above 40 µM.
As for `C[C@]12CC[C@H](OCCS(=O)(=O)N3CCOCC3)C[C@@H]1CC[C@@H]1[C@@H]2CC[C@]2(C)C(=O)CC[C@@H]12`, the IC50 in series [1] amounted to 20 µM.
For `C[C@]12CC[C@H](OC[C@@H](O)CN3CCOCC3)C[C@@H]1CC[C@@H]1[C@@H]2CC[C@]2(C)C(=O)CC[C@@H]12`, the IC50 in series [8] was above 40 µM.
On to `C[C@]12CC[C@H](OS(=O)(=O)CCN3CCOCC3)C[C@@H]1CC[C@@H]1[C@@H]2CC[C@]2(C)C(=O)CC[C@@H]12`, for which, in series [1], the IC50 is 5 µM. Besides, the result with Trypanosoma cruzi [3] was inactive. In addition, the Activity result in the series with H9c2 [5] is given as “Non-Toxic”.
As to `C[C@]12CC[C@H](OC(=O)CN3CCOCC3)C[C@@H]1CC[C@@H]1[C@@H]2CC[C@]2(C)C(=O)CC[C@@H]12`, the IC50 in series [1] is 10 µM.
On to `C[C@]12CC[C@H](OC(=O)CCN3CCOCC3)C[C@@H]1CC[C@@H]1[C@@H]2CC[C@]2(C)C(=O)CC[C@@H]12`, for which the IC50 in series [1] is 10 µM.
`C[C@]12CC[C@H](OCCS(=O)(=O)N3CCOCC3)C[C@@H]1CC[C@@H]1[C@@H]2CC[C@]2(C)C(=O)[C@H](Br)C[C@@H]12`: the selectivity ratio in series [2] amounted to 3.5. Besides, the result in the series with Trypanosoma cruzi [3] and in the series on Trypanosoma cruzi [9] was Active. Also, the EC50 (in general, the midpoint of the concentration-response curve) in the series on Trypanosoma cruzi [4] is 2.4 µM; with H9c2 [6] it was 8.5 µM. Moreover, the Activity entry in the series on H9c2 [5] was “Toxic”. Moreover, the Ratio IC50 in [7] was in the range of 5 to 10.
For the compound `CC(C)C(=O)O[C@H]1CC[C@@]2(C)[C@@H](CC[C@@H]3[C@@H]2CC[C@]2(C)C(=O)CC[C@@H]32)C1`, the IC50 in series [1] is above 3 µM. For the same compound, in the series on Trypanosoma cruzi [3], the outcome was inactive. The Activity result in the series with H9c2 [5] is given as “Non-Toxic”.
In the case of `CN1CCN(CC(=O)O[C@H]2CC[C@@]3(C)[C@@H](CC[C@@H]4[C@@H]3CC[C@]3(C)C(=O)CC[C@@H]43)C2)CC1`, the IC50 in [1] was determined as 10 µM.
For the compound `CC(C)C(=O)O[C@H]1CC[C@@]2(C)[C@@H](CC[C@@H]3[C@@H]2CC[C@]2(C)C(=O)[C@H](Br)C[C@@H]32)C1`, the IC50 in series [1] fell in the range of 0.15 to 0.38 µM. Further, the “inhibition (INH)” value in series [10] is “Not Active”. In addition, the Ratio IC50 in series [7] was above 400.
As to `CO[C@H]1CC[C@@]2(C)[C@@H](CC[C@@H]3[C@@H]2CC[C@]2(C)C(=O)CC[C@@H]32)C1`, in the series with Trypanosoma cruzi [3], the result was inactive. For the same compound, in the series with H9c2 [5], the Activity entry was “Non-Toxic”.
As to `C[C@]12CC[C@H](O)C[C@@H]1CC[C@@H]1[C@@H]2CC[C@]2(C)C(=O)CC[C@@H]12` [EPIANDROSTERONE], the outcome in the series on Trypanosoma cruzi [3] was inactive. Further, the Activity entry with H9c2 [5] is given as “Non-Toxic”.
Consider `CC(C)CO[C@H]1CC[C@@]2(C)[C@@H](CC[C@@H]3[C@@H]2CC[C@]2(C)C(=O)[C@H](Br)C[C@@H]32)C1`, for which the selectivity ratio in [2] is 2.9. Further, the result in the series on Trypanosoma cruzi [3] and with Trypanosoma cruzi [9] was Active. Also, the EC50 amounted to 4.2 µM with Trypanosoma cruzi [4] and 12.3 µM in the series on H9c2 [6]. Also, the Activity result in the series with H9c2 [5] is listed as “Toxic”.
As for `CN1CCN(CCS(=O)(=O)O[C@H]2CC[C@@]3(C)[C@@H](CC[C@@H]4[C@@H]3CC[C@]3(C)C(=O)CC[C@@H]43)C2)CC1`, the IC50 in [1] stood at 5 µM. Moreover, the outcome with Trypanosoma cruzi [3] was inactive. Further, the Activity result with H9c2 [5] is “Non-Toxic”.
Take `C[C@]12CC[C@H](OCC(=O)N3CCOCC3)C[C@@H]1CC[C@@H]1[C@@H]2CC[C@]2(C)C(=O)[C@H](Br)C[C@@H]12`: the selectivity ratio in series [2] stood at 1.8. Further, the outcome in the series with Trypanosoma cruzi [3] was Active. Moreover, the EC50 in the series on Trypanosoma cruzi [4] turned out to be 3.2 µM; in the series with H9c2 [6] it was 5.6 µM. Further, the Activity entry in the series with H9c2 [5] was “Toxic”. Besides, the Ratio IC50 in [7] was 5 to 10.
As to `C[C@]12CCCC[C@@H]1CC[C@@H]1[C@@H]2CC[C@]2(C)C(=O)[C@H](Br)C[C@@H]12`, in series [2], the selectivity ratio came out at 2.4. Also, in the series with Trypanosoma cruzi [3], the result was Active. In addition, the EC50 in the series with Trypanosoma cruzi [4] was determined as 3.5 µM; in the series on H9c2 [6], 8.4 µM. Moreover, in the series on H9c2 [5], the Activity result is given as “Toxic”.
`O=C(Cn1ccnc1[N+](=O)[O-])NCc1ccccc1` [BENZNIDAZOLE] returned an EC50 with H9c2 [6] above 40 µM. Further, the result in the series on Trypanosoma cruzi [9] was Active.
On to `C[C@]12CC[C@H](O)C[C@@H]1CC[C@@H]1[C@@H]2CC[C@]2(C)C(=O)[C@H](Br)C[C@@H]12` [16.ALPHA.-BROMOEPIANDROSTERONE], for which the selectivity ratio in series [2] was determined as 2. Further, the outcome in the series on Trypanosoma cruzi [3] was Active. Further, the half-maximal effective concentration (EC50) in the series with Trypanosoma cruzi [4] amounted to 6.4 µM; in the series with H9c2 [6], 13 µM. Also, in the series with H9c2 [5], the Activity entry is on record as “Toxic”. Besides, in [7], the Ratio IC50 was determined as 2.
For `CN1CCN(CCC(=O)O[C@H]2CC[C@@]3(C)[C@@H](CC[C@@H]4[C@@H]3CC[C@]3(C)C(=O)CC[C@@H]43)C2)CC1`, the IC50 in series [1] turned out to be 10 µM.
Take `C[C@]12CC[C@H](OS(C)(=O)=O)C[C@@H]1CC[C@@H]1[C@@H]2CC[C@]2(C)C(=O)[C@H](Br)C[C@@H]12`: in series [2], the selectivity ratio stood at 3.1. The result in the series on Trypanosoma cruzi [3] and with Trypanosoma cruzi [9] was Active. Besides, the EC50 turned out to be 2.4 µM in the series on Trypanosoma cruzi [4] and 7.5 µM in the series with H9c2 [6]. In the series with H9c2 [5], the Activity result is listed as “Toxic”. In addition, the Ratio IC50 in series [7] was 6.
On to `CC(=O)O[C@H]1CC[C@@]2(C)[C@@H](CC[C@@H]3[C@@H]2CC[C@]2(C)C(=O)CC[C@@H]32)C1`, for which, in series [1], the IC50 was above 3 µM. Moreover, in the series with Trypanosoma cruzi [3], the outcome was inactive. In addition, in the series with H9c2 [5], the Activity result was “Non-Toxic”.
Turning to `C=CCC(=O)O[C@H]1CC[C@@]2(C)[C@@H](CC[C@@H]3[C@@H]2CC[C@]2(C)C(=O)[C@H](Br)C[C@@H]32)C1`, in series [1], the IC50 lay in the range of 0.15 to 0.38 µM. Also, the selectivity ratio in [2] is 3.2. Also, the outcome with Trypanosoma cruzi [3] was Active. Further, the concentration giving a half-maximal response (EC50) in the series on Trypanosoma cruzi [4] was found to be 16.7 µM; with H9c2 [6], 54 µM. Also, the Activity entry with H9c2 [5] is recorded as “Toxic”.
Take `C[C@]12CC[C@H](OS(C)(=O)=O)C[C@@H]1CC[C@@H]1[C@@H]2CC[C@]2(C)C(=O)CC[C@@H]12`: in the series on Trypanosoma cruzi [3], the outcome was inactive. Besides, the Activity result in the series with H9c2 [5] was “Non-Toxic”. In addition, the Ratio IC50 in series [7] stood at 2.
Regarding `CN1CCN(C[C@@H](O)CO[C@H]2CC[C@@]3(C)[C@@H](CC[C@@H]4[C@@H]3CC[C@]3(C)C(=O)CC[C@@H]43)C2)CC1`, in [8], the IC50 is above 40 µM.
For the compound `C=CCC(=O)O[C@H]1CC[C@@]2(C)[C@@H](CC[C@@H]3[C@@H]2CC[C@]2(C)C(=O)CC[C@@H]32)C1`, the IC50 in [1] is above 3 µM. The result in the series on Trypanosoma cruzi [3] was inactive. Further, the Activity entry with H9c2 [5] was “Non-Toxic”.
Turning to `C[C@]12CC[C@H](OC[C@H](O)CN3CCOCC3)C[C@@H]1CC[C@@H]1[C@@H]2CC[C@]2(C)C(=O)CC[C@@H]12`, the IC50 in series [8] is above 40 µM.
